Experimental data published in patent US8541373B2, “BChE albumin fusions for the treatment of cocaine abuse” (priority 2009, dated 2013).
Several values for one entry are separate records, joined by “and”; a condition that tells them apart may be missing. Identical values can stand only once.

Legend:
[1] = AlbuBChE antibodies and blood level after repeated AlbuBChE injections
Description: The monkeys trained to self-administer cocaine and also tested on the reinstatement procedure received a total of 4 injections of AlbuBChE. Blood was taken for determination of AlbuBChE antibodies after the first, second and fourth AlbuBChE injections.

[2] = tested on: cocaine; assay: Effect of AlbuBChE pretreatment on cocaine-induced cardiovascular and body temperature changes; type: in vivo, cynomolgus monkeys
Experimental: The effect of pretreatment with AlbuBChE prior to cocaine dose on CV parameters was tested on the second group (Group 2) of animals (3 males and 3 females). First baseline CV parameters were recorded on SD 15 after an IM administration of AlbuBChE formulation buffer followed by a single IV administration of saline (cocaine vehicle), 3 hours later. The effect of cocaine on CV parameters was measured on SD 18, on which the animals received a single IM injection of AlbuBChE formulation buffer followed by a single IV dose of cocaine (1 mg/kg, IV), 3 hours later.
The effect of pretreatment with AlbuBChE on cocaine-induced changes in CV parameters was monitored on SD 22. CV parameters were recorded subsequent to a single IM dose of AlbuBChE (15 mg/kg) followed by a single IV dose of cocaine (1 mg/kg), 3 hours later (see Table 21).

[3] = tested on: cocaine discriminative-stimulus effects; assay: Drug discrimination in methamphetamine-trained monkeys; type: in vivo, squirrel monkeys
[4] = Clinical study: safety, tolerability and immunogenicity of single IM AlbuBChE; type: in vivo, human; details: humans
Experimental: Forty (40) non-treatment seeking healthy adults who have used cocaine are randomly assigned to five (5) treatment groups. Each group will contain eight subjects. • Group A (low dose): Subjects receive a single, intramuscular injection of 50 mg of AlbuBChE. • Group B (intermediate dose): Subjects receive a single, intramuscular injection of 100 mg of AlbuBChE. • Group C (high-intermediate dose): Subjects receive a single, intramuscular injection of 150 mg of AlbuBChE. • Group D (high dose): Subjects receive a single, intramuscular injection of 300 mg of AlbuBChE. • Group E (negative control): Subjects receive a single, intramuscular injection of placebo.
Vital signs, including blood pressure, heart rate (part of the PD parameters) and body temperature are monitored. […]. Telemetry is performed for 4 hours immediately after each cocaine injection.
Local tolerability and pain (evaluated by the visual analogue scale (VAS)) at the injection site are evaluated during the first 24 h after dosing. Timepoints are: 20 min, 1, 2, 4, 8 and 24 hours post AlbuBChE dose.
Samples for immunogenic levels are collected but are not all necessarily assayed. Titers for antibodies against HSA, human butyryl cholinesterase (hBChE) and AlbuBChE are evaluated. Sampling timepoints are: pre-dose and 168 hours (Day 8), 240 hours (Day 11) and follow-up (Day 18±2) post-dose. The blood tests for IG assays take place before administration of cocaine (where relevant).

[5] = Previous pharmacokinetic study, SC, IM and IV administration (bioavailability); details: previous study in cynomolgus monkeys
Experimental: AlbuBChE absolute bioavailability for IM and Sc routes of administration was calculated relative to IV at the […] dose level.
In a previous study, AlbuBChE pharmacokinetic profile was evaluated in cynomolgus monkeys. In that study, the test article was administered SC (7.8, 2.4 and 0.78 mg/kg), IM (2.4 mg/kg) and IV (2.4 mg/kg). […] In addition, AlbuBChE IM dose levels of 0.2, 1 and 5 mg/kg were selected to define AlbuBChE pharmacodynamic range in cynomolgus monkeys.

[6] = tested on: cocaine self-administration; assay: Cocaine self-administration; type: in vivo, squirrel monkeys (Saimiri sciureus)
Description: Adult male squirrel monkeys (Saimiri sciureus) weighing 0.8 to 1.2 kg were used as subjects. All monkeys were individually housed in a humidity and temperature controlled room and had free access to water. The monkeys were fed following any experimental procedures an amount of food (Lab Diet 5045, PMI Nutrition International, Richmond, Ind.; Banana Softies, Bio-Serv, Frenchtown, N.J.) determined to maintain a stable weight. Fresh fruit, vegetables and environmental enrichment were also provided daily. The animal care facilities were fully accredited by AAALAC and all experiments were approved by the NIDA Intramural Research Program Animal Care and Use Committee.
Three monkeys were trained to self-administer 30 μg/kg/inj i.v. cocaine. Details of the self-administration training procedure can be found elsewhere (Justinova et al., 2003). In brief, the monkeys were placed in a seated position in a Plexiglas restraint chair. The chair was enclosed in a larger acoustical chamber. On the front wall of the restraint chair there was a response lever and stimulus lights. A green light signaled the beginning of the session. The monkeys were trained to make 10 responses (fixed-ratio, FR, 10) to receive an i.v. injection of cocaine. The injection of cocaine was accompanied by the green light, turning off and a yellow stimulus light being presented for 2 sec. Following each cocaine injection there was also a 60-sec timeout. At the end of the timeout, the green light was turned on. Sessions lasted for 1 hour. Occasionally, saline was substituted for cocaine. Following the establishment of stable cocaine self-administration and reliable extinction of responding following saline substitution, AlbuBChE (5 mg/kg, i.m.) or its vehicle (i.m.) were given 2 hours prior to a self-administration session. Self-administration responding was then measured for 5 consecutive days. Following each drug test or saline substitution, responding for 30 μg/kg/inj cocaine was reestablished for at least 5 days. Following reinstatement testing (see below), the dose of cocaine available for self-administration was lowered to 10 μg/kg/inj and the effect of AlbuBChE (5 mg/kg, i.m.) was again determined.
The blood level data were analyzed separately for each metabolite and time point (5 or 30 min). […] The self-administration data were analyzed separately for response rate or injections following either vehicle treatment or AlbuBChE treatment. Control data were included in the analysis by taking the average of the last 3 days for the immediately preceding baseline condition. A within subjects ANOVA was then performed with follow-up tests contrasting days following vehicle or AlbuBChE with the control. For the reinstatement tests, a two-way ANOVA was performed for both response rate and injections, with time post vehicle or AlbuBChE as the within-subjects factor and pretreatment (vehicle or AlbuBChE) as the between subjects factor. Follow-up contrast compared vehicle and AlbuBChE at each time point.

[7] = 15 mg/kg IM 3 hours before cocaine 1 mg/kg IV
[8] = 5 mg/kg i.m., 30 μg/kg/inj cocaine, tracked 5 days

Substance: AlbuBChE
- AlbuBChE antibody levels ([1]; following the first 2 injections, level of detection titer 20): below the level of detection
- AlbuBChE antibody titer, individual monkeys ([1]; following the fourth injection): 21 and 43 and 643
- Concentration of AlbuBChE in the blood, individual monkeys ([1]; one week following the AlbuBChE injection (fourth)): 27 ng/mL and 55 ng/mL and 53 ng/mL
- Maximum blood pressure after cocaine [2, 7]: decreased
- Truncation of time to reversal of blood pressure effect [2, 7]: 4.5 fold
- Time to reversal of cocaine-induced increase in mean arterial blood pressure ([2]; 15 mg/kg IM 3 hours before cocaine 1 mg/kg IV (77 minutes with cocaine alone)): 17 min
- Body temperature after cocaine ([2]; 15 mg/kg IM pre-treatment, cocaine 1 mg/kg IV, base line 38° C. (38.7° C. with cocaine alone)): 38.3 °C
- Cocaine-induced increase in heart rate ([2]; 15 mg/kg pre-treatment, cocaine 1 mg/kg IV (70% with cocaine alone)): 30%
- Time for heart rate to return to baseline after cocaine dose ([2]; 15 mg/kg pre-treatment, cocaine 1 mg/kg IV (2 hours with cocaine alone)): 30 min
- Peak heart rate after cocaine ([2]; 15 mg/kg pre-treatment, cocaine 1 mg/kg IV, baseline 140 (240 with cocaine alone)): 182 beats/min
- Generalization of cocaine to the methamphetamine cue ([3]; 5 mg/kg 2 hrs prior, 0.3 mg/kg cocaine): failed to generalize
- Substitution of cocaine for methamphetamine ([3]; 5 mg/kg 2 hrs prior, 1.0 mg/kg cocaine): approximately 70%
- Generalization of cocaine to the methamphetamine cue ([3]; 24 hrs following AlbuBChE, 0.3 mg/kg cocaine): approximately 70%
- Generalization of cocaine to the methamphetamine cue ([3]; 24 hrs following AlbuBChE, 1.0 mg/kg cocaine): fully generalized
- Generalization of cocaine to the methamphetamine cue ([3]; 48 hrs following AlbuBChE, 0.3 mg/kg cocaine): fully generalized
- Generalization of methamphetamine to the methamphetamine cue ([3]; AlbuBChE 2 hrs prior to methamphetamine dose-effect function): did not affect generalization
- Rate of responding in discrimination study ([3]; cocaine or methamphetamine treatment condition): did not affect the rate of responding
- Local tolerability and pain at the IM injection site [4]: acceptable
- Immune response ([4]; 50 mg to 300 mg single dose): does not provoke a significant immune response
- Safety ([4]; IM doses of 50 mg to 300 mg): No significant safety issues are observed
- Tolerability ([4]; IM doses of 50 mg to 300 mg): well tolerated
- Blood pressure after AlbuBChE ([4]; intramuscular injection): a significant increase in blood pressure is not observed
- Bioavailability ([5]; IM): 79%
- Bioavailability ([5]; SC): 35-39%
- Duration of effect on cocaine self-administration ([6]; 30 μg/kg/inj cocaine, reduced effectiveness): ≥ 3 days
- Cocaine self-administration ([6]; 5 mg/kg i.m., 30 μg/kg/inj cocaine): reduced self-administration
- Self-administration injections vs baseline [6, 8]: significantly different from control on day 1 and 4
- Self-administration response rate vs baseline [6, 8]: different from control on days 1-4
- Self-administration response rate and injections ([6]; 5 mg/kg, 10 μg/kg/inj cocaine, 2 hrs following AlbuBChE): failed to reach significance
